Columns and labels:
[1] = system: cultured rat pituitary cells; experiment: secretion of ACTH and β-endorphin by cultured rat pituitary cells; format: cell-based; conditions: for stimulates the secretion of ACTH and β-END-LI: general procedure of Example III
Procedure: (§1) The synthetic peptide AHC and oCRF were examined for their effects on the secretion of ACTH and β-endorphin in vitro and was also in vivo. The potency of synthetic oCRF to stimulate the secretion of ACTH and β-endorphin by cultured rat pituitary cells was measured using the procedure as generally set forth in Endocrinology, 91, 562 (1972). […] In vivo testing is carried out using the general procedure set forth in C. Rivier et al., Science, 218, 377 (1982).

[2] = lowering of blood pressure, in vivo testing; conditions: general procedure of Example III
Procedure: as §1

EC50 ([1]; cultured rat pituitary cells, read-out: concentration giving half-maximal responses, secretion of ACTH and β-endorphin) [nM]	Molecule	stimulates the secretion of ACTH and β-END-LI [1]	lowering of blood pressure [2]	potency ([1]; general statement, compared with native CRF, test not named)	secretory response to maximal concentrations ([1]; maximal (1-5 nM) concentrations)
–	CC[C@H](C)[C@H](NC(=O)[C@@H](NC(=O)[C@H](CC(=O)O)NC(=O)[C@H](CC(C)C)NC(=O)[C@H](CC(C)C)NC(=O)[C@H](CC(C)C)NC(=O)[C@H](CCCNC(=N)N)NC(=O)[C@H](CC(N)=O)NC(=O)[C@H](CC(N)=O)NC(=O)[C@H](C)NC(=O)[C@H](C)NC(=O)[C@H](CCC(N)=O)NC(=O)[C@H](CCC(=O)O)NC(=O)[C@H](CCCCN)NC(=O)[C@H](CCC(=O)O)NC(=O)[C@H](CCCCN)NC(=O)[C@H](CCC(=O)O)NC(=O)[C@H](CCC(N)=O)NC(=O)[C@H](CCCCN)NC(=O)[C@H](CCCNC(=N)N)NC(=O)[C@H](C)NC(=O)[C@H](CCC(=O)O)NC(=O)[C@@H](NC(=O)[C@H](CCSC)NC(=O)[C@H](CCCCN)NC(=O)[C@H](CCCNC(=N)N)NC(=O)[C@H](CC(C)C)NC(=O)[C@H](CC(C)C)NC(=O)[C@H](CCC(=O)O)NC(=O)[C@H](CC(C)C)NC(=O)[C@H](CO)NC(=O)[C@H](CC(C)C)NC(=O)[C@H](CC(=O)O)NC(=O)[C@@H](NC(=O)[C@H](CO)NC(=O)[C@@H](NC(=O)[C@@H]1CCCN1C(=O)[C@@H]1CCCN1C(=O)CNC(=O)[C@@H]1CCC(=O)N1)[C@@H](C)CC)[C@@H](C)CC)[C@@H](C)CC)[C@@H](C)CC)C(N)=O	stimulates the secretion of ACTH and β-END-LI	very significant lowering of blood pressure	–	–
–	CC[C@H](C)[C@H](NC(=O)[C@H](CCC(=O)O)NC(=O)[C@H](CC(=O)O)NC(=O)[C@H](CCSC)NC(=O)[C@H](CC(C)C)NC(=O)[C@H](CCCCNC(=N)N)NC(=O)[C@H](CCCNC(=N)N)NC(=O)[C@H](CC(N)=O)NC(=O)[C@H](CC(N)=O)NC(=O)[C@H](C)NC(=O)[C@H](C)NC(=O)[C@H](CCC(N)=O)NC(=O)[C@H](CCC(N)=O)NC(=O)[C@H](CCCCN)NC(=O)[C@H](CC(C)C)NC(=O)[C@H](CCCCN)NC(=O)[C@H](CCC(=O)O)NC(=O)[C@H](CCC(N)=O)NC(=O)[C@H](CCCCN)NC(=O)[C@H](CCC(=O)O)NC(=O)[C@@H](NC(=O)[C@H](CCC(=O)O)NC(=O)[C@@H](NC(=O)[C@H](CCSC)NC(=O)[C@H](CCCCN)NC(=O)[C@H](CCCNC(=N)N)NC(=O)[C@H](CC(C)C)NC(=O)[C@H](CC(C)C)NC(=O)[C@H](CCC(=O)O)NC(=O)[C@H](CC(C)C)NC(=O)[C@H](CO)NC(=O)[C@H](CC(C)C)NC(=O)[C@H](CC(=O)O)NC(=O)[C@@H](NC(=O)[C@H](CO)NC(=O)[C@@H](NC(=O)[C@@H]1CCCN1C(=O)[C@@H]1CCCN1C(=O)CNC(=O)[C@@H]1CCC(=O)N1)[C@@H](C)CC)[C@@H](C)CC)[C@@H](C)CC)[C@@H](C)CC)C(N)=O	stimulates the secretion of ACTH and β-END-LI	very significant lowering of blood pressure	–	–
~0.065	H-SQEPPISLDLTFHLLREMLEMAKAEQEAEQAALNRLLLEEA-NH2 [AHC]	–	–	particularly potent	at a plateau level
